Strand notation (5' to 3'): a small letter for the sugar, then the base; units joined by * are phosphorothioate-linked, units joined directly phosphodiester-linked; [ ] holds rarer units or linkages, { } end groups; capitals alone tell only the bases. k = constrained ethyl (cEt); [5mC] = 5-methylcytosine; d = 2'-deoxy (DNA)
System: Yap1 mRNA
Experiment: Antisense inhibition of human Yap1 in A-431 cells by cEt gapmers, single dose (Example 2, RTS4814)
Format: cell-based
Procedure: Modified oligonucleotides were designed to target a Yap1 nucleic acid and were tested for their effect on Yap1 mRNA level in vitro. The modified oligonucleotides were tested in a series of experiments that had similar culture conditions. Cultured A-431 cells at a density of 5,000 cells per well were treated using free uptake with 2,000 nM of modified oligonucleotide. After a treatment period of approximately 48 hours, RNA was isolated from the cells and Yap1 mRNA levels were measured by quantitative real-time RTPCR. Human primer probe set RTS4814 was used to measure mRNA levels. Yap1 mRNA levels were normalized to total RNA content, as measured by RIBOGREEN®. Results are presented in the tables below as percent control of the amount of Yap1 mRNA relative to untreated control cells (% UTC). The modified oligonucleotides with percent control values marked with an asterisk (*) target the amplicon region of the primer probe set. Additional assays may be used to measure the potency and efficacy of the modified oligonucleotides targeting the amplicon region.
The newly designed modified oligonucleotides in the Tables below were designed as 3-10-3 cEt gapmers. The gapmers are 16 nucleosides in length, wherein the central gap segment comprises of ten 2′-deoxynucleosides and is flanked by wing segments on the 5′ direction and the 3′ direction comprising three nucleosides each. Each nucleoside in the 5′ wing segment and each nucleoside in the 3′ wing segment has a cEt sugar modification. The internucleoside linkages throughout each gapmer are phosphorothioate (P═S) linkages. All cytosine residues throughout each gapmer are 5-methylcytosines.
“Start site” indicates the 5′-most nucleoside to which the gapmer is targeted in the human gene sequence. “Stop site” indicates the 3′-most nucleoside to which the gapmer is targeted human gene sequence. […] Activity ofthe modified oligonucleotide may be defined in a different experiment.

[1] = Table 6, A-431 cells, 5,000 cells per well, free uptake, 2,000 nM modified oligonucleotide, approx. 48 hours, RTS4814, normalized to RIBOGREEN, Yap1 mRNA relative to untreated control cells
[2] = Yap1 mRNA as percent of untreated control, A-431 cells, 3-10-3 cEt gapmers targeting SEQ ID NO.: 1, and 2, Table 31
[3] = Table 22, Yap1 mRNA as percent of untreated control, 3-10-3 cEt gapmers, single dose
[4] = Table 18, A-431 cells, 5,000 cells per well, free uptake, 2,000 nM modified oligonucleotide, approx. 48 hours, RTS4814, normalized to RIBOGREEN, Yap1 mRNA as percent of untreated control
[5] = Table 21, Yap1 mRNA, percent of untreated control, 3-10-3 cEt gapmers targeting SEQ ID NO.: 1 and 2
[6] = Table 19, A-431 cells, 5,000 cells per well, free uptake, 2,000 nM modified oligonucleotide, approx. 48 hours, RTS4814, normalized to RIBOGREEN, Yap1 mRNA as percent of untreated control
[7] = Table 5, A-431 cells, 5,000 cells per well, free uptake, 2,000 nM modified oligonucleotide, approx. 48 hours, RTS4814, normalized to RIBOGREEN, Yap1 mRNA relative to untreated control cells
[8] = Table 23, Yap1 mRNA as percent of untreated control, 3-10-3 cEt gapmers, single dose
[9] = Table 33, Yap1 mRNA, percent of untreated control, 3-10-3 cEt gapmers targeting SEQ ID NO.: 1, and 2
[10] = Yap1 mRNA as percent of untreated control, A-431 cells, 3-10-3 cEt gapmers targeting SEQ ID NO.: 1, and 2, Table 30
[11] = Table 24, Yap1 mRNA as percent of untreated control, 3-10-3 cEt gapmers targeting SEQ ID NO.: 1, and 2
[12] = A-431 cells, 5,000 cells per well, free uptake, 2,000 nM modified oligonucleotide, approx. 48 hours, RTS4814, normalized to RIBOGREEN, Table 4, asterisk (*) = targets amplicon region of primer probe set

716366 (k[5mC]*kA*kG*dG*dT*d[5mC]*dG*dG*dT*d[5mC]*dT*d[5mC]*d[5mC]*kG*kA*kG; antisense) [Compound 716366]
YAP1 (% UTC) [1]: 95 % UTC

1074545 (kA*k[5mC]*kT*d[5mC]*d[5mC]*d[5mC]*d[5mC]*dT*dA*dG*dG*d[5mC]*dA*k[5mC]*kT*kA; antisense) [compound 1074545]
YAP1 (% UTC) [2]: 18 % UTC

1075176 (antisense kA*kA*kT*dT*dA*d[5mC]*d[5mC]*d[5mC]*dG*dG*dG*dA*dA*k[5mC]*kT*kA) [Compound 1075176]
YAP1 (% UTC) [3]: 70 % UTC

1074788 (kT*k[5mC]*kA*dA*d[5mC]*d[5mC]*dA*dT*dA*dA*dG*dT*dA*kG*kA*kT; antisense) [Compound 1074788]
YAP1 (% UTC) [4]: 25 % UTC

1076391 (k[5mC]*kA*kA*dA*dT*dA*dT*dA*dG*dT*dT*dA*dG*k[5mC]*k[5mC]*kT; antisense) [Compound 1076391]
YAP1 (% UTC) [5]: 22 % UTC

1074660 (antisense kA*kA*kT*dT*dT*d[5mC]*dA*dT*dT*dA*d[5mC]*dT*dA*k[5mC]*kT*k[5mC]) [Compound 1074660]
YAP1 (% UTC) [4]: 48 % UTC

1076485 (antisense kA*kA*kA*d[5mC]*dG*dA*dA*dA*d[5mC]*dG*dG*dG*dA*kA*kA*kT) [Compound 1076485]
YAP1 (% UTC) [6]: 55 % UTC

1075974 (kA*kA*kA*dA*dA*dA*dT*dT*d[5mC]*d[5mC]*dG*d[5mC]*dA*kA*k[5mC]*kA; antisense) [Compound 1075974]
YAP1 (% UTC) (Table 20, Yap1 mRNA, percent of untreated control, 3-10-3 cEt gapmers targeting SEQ ID NO.: 1 and 2): 39 % UTC

1076100 (kA*kA*kT*dA*dA*dG*dG*dG*dA*d[5mC]*dT*dA*d[5mC]*kT*kT*kT; antisense) [Compound 1076100]
YAP1 (% UTC) [4]: 65 % UTC

716551 (k[5mC]*kG*k[5mC]*dT*dA*dG*dA*dA*dA*dA*dG*dT*dG*kT*kT*kA; antisense) [Compound 716551]
YAP1 (% UTC) [7]: 76 % UTC

1076137 (k[5mC]*kA*k[5mC]*d[5mC]*dA*dA*d[5mC]*dA*dA*d[5mC]*d[5mC]*dT*d[5mC]*kA*kT*kG; antisense) [Compound 1076137]
YAP1 (% UTC) [8]: 45 % UTC

716576 (kT*kG*kT*d[5mC]*dA*dG*dT*dT*dA*dT*d[5mC]*d[5mC]*dT*kA*kT*k[5mC]; antisense) [Compound 716576]
YAP1 (% UTC) [1]: 52 % UTC

1076043 (k[5mC]*kA*kA*dA*dA*dA*dG*dG*d[5mC]*dT*dA*dT*dT*kG*kA*kG; antisense) [Compound 1076043]
YAP1 (% UTC) (Table 25, Yap1 mRNA as percent of untreated control, 3-10-3 cEt gapmers targeting SEQ ID NO.: 1, and 2): 36 % UTC

1075209 (antisense k[5mC]*kA*kT*d[5mC]*dA*dA*d[5mC]*dA*dA*dT*dG*dG*dT*k[5mC]*kT*kA) [Compound 1075209]
YAP1 (% UTC) [8]: 11 % UTC

1076019 (k[5mC]*kA*k[5mC]*dT*dA*dA*dT*dA*dG*dG*dA*dT*dG*kG*kA*kT; antisense) [compound 1076019]
YAP1 (% UTC) [9]: 12 % UTC

1075664 (antisense kG*k[5mC]*kT*dA*dA*dA*dT*dA*dG*dG*dT*dG*dG*kT*kT*kA) [compound 1075664]
YAP1 (% UTC) [10]: 87 % UTC

1076051 (k[5mC]*kT*kT*dA*dA*d[5mC]*dT*dA*dT*dT*d[5mC]*dA*dG*k[5mC]*k[5mC]*k[5mC]; antisense) [compound 1076051]
YAP1 (% UTC) [9]: 21 % UTC

1075056 (antisense k[5mC]*kT*kT*dT*dA*dT*dT*dA*dT*d[5mC]*dT*d[5mC]*dA*kA*k[5mC]*k[5mC]) [compound 1075056]
YAP1 (% UTC) [10]: 21 % UTC

1074834 (kT*kT*kG*d[5mC]*dG*dA*dG*dG*dA*dT*dA*dA*dA*kA*kT*k[5mC]; antisense) [compound 1074834]
YAP1 (% UTC) (Table 32, Yap1 mRNA, percent of untreated control, 3-10-3 cEt gapmers targeting SEQ ID NO.: 1, and 2): 14 % UTC

1074500 (k[5mC]*kT*kA*d[5mC]*dA*dA*dT*dA*dA*d[5mC]*d[5mC]*dA*dT*k[5mC]*k[5mC]*k[5mC]; antisense) [Compound 1074500]
YAP1 (% UTC) [4]: 10 % UTC

1075012 (antisense k[5mC]*kT*kA*dT*dT*dG*dG*dA*dA*dT*dG*dT*dT*kA*kA*k[5mC]) [Compound 1075012]
YAP1 (% UTC) [4]: 119 % UTC

716426 (kT*kT*kT*dG*dA*dT*dT*d[5mC]*dT*dT*dT*dA*dG*kA*kG*k[5mC]; antisense) [Compound 716426]
YAP1 (% UTC) [1]: 45 % UTC

1075025 (antisense kA*k[5mC]*kT*dT*dA*dA*dG*dA*dA*d[5mC]*dT*d[5mC]*dA*k[5mC]*kA*k[5mC]) [compound 1075025]
YAP1 (% UTC) [2]: 58 % UTC

1074730 (antisense kT*kA*kT*d[5mC]*dA*d[5mC]*dA*dG*dT*dA*d[5mC]*dT*dG*k[5mC]*kT*kA) [Compound 1074730]
YAP1 (% UTC) [11]: 46 % UTC

1075684 (kT*k[5mC]*kT*dG*dA*dA*dA*dA*dA*dG*dT*dT*dA*kT*kG*k[5mC]; antisense) [Compound 1075684]
YAP1 (% UTC) [4]: 78 % UTC

716518 (antisense k[5mC]*kA*kA*dG*dG*dT*d[5mC]*d[5mC]*d[5mC]*d[5mC]*d[5mC]*dT*dA*kA*kA*kT) [Compound 716518]
YAP1 (% UTC) [7]: 88 % UTC

1074824 (k[5mC]*k[5mC]*kT*dG*dA*dG*d[5mC]*dA*d[5mC]*dT*d[5mC]*dA*dT*kT*kT*k[5mC]; antisense) [Compound 1074824]
YAP1 (% UTC) [3]: 53 % UTC

716428 (kA*k[5mC]*kA*dG*dG*d[5mC]*dT*d[5mC]*dA*d[5mC]*dT*dT*d[5mC]*k[5mC]*k[5mC]*k[5mC]; antisense) [Compound 716428]
YAP1 (% UTC) [7]: 10 % UTC

716480 (kG*k[5mC]*kA*dA*dG*dT*d[5mC]*dT*dT*dG*dT*dA*dA*kG*kT*kA; antisense) [Compound 716480]
YAP1 (% UTC) [1]: 18 % UTC

1074218 (antisense kA*kG*kG*dG*d[5mC]*dT*d[5mC]*d[5mC]*dT*dG*d[5mC]*dA*dG*kT*kG*k[5mC]) [Compound 1074218]
YAP1 (% UTC) [11]: 70 % UTC

716479 (kG*kA*kA*d[5mC]*dA*dA*dT*d[5mC]*dT*dT*dG*dA*dA*kG*kG*k[5mC]; antisense) [Compound 716479]
YAP1 (% UTC) [7]: 32 % UTC

716466 (kG*kT*kG*dG*dA*dG*d[5mC]*dA*d[5mC]*dT*d[5mC]*d[5mC]*d[5mC]*k[5mC]*kT*kA; antisense) [Compound 716466]
YAP1 (% UTC) [12]: 58 % UTC

1076229 (kA*kA*kT*dT*dA*dA*d[5mC]*d[5mC]*dT*d[5mC]*dA*dG*dT*kG*kA*kG; antisense) [Compound 1076229]
YAP1 (% UTC) [6]: 91 % UTC

1074960 (antisense k[5mC]*kT*kT*dA*dA*d[5mC]*d[5mC]*d[5mC]*dG*dG*dG*dT*dT*kT*kT*kT) [compound 1074960]
YAP1 (% UTC) [10]: 81 % UTC

1075505 (kG*k[5mC]*kT*dA*dA*dA*dT*dT*dA*d[5mC]*dA*dG*dA*kG*kG*kT; antisense) [compound 1075505]
YAP1 (% UTC) [2]: 18 % UTC

1074247 (antisense kA*kT*k[5mC]*dG*dA*dT*dG*dT*dG*dA*dT*dT*dT*kA*kA*kG) [Compound 1074247]
YAP1 (% UTC) [5]: 43 % UTC

716439 (kG*kT*kA*dT*dT*dT*dA*dA*dT*dA*dT*d[5mC]*dA*kG*kA*kT; antisense) [Compound 716439]
YAP1 (% UTC) [12]: 77 % UTC

716578 (kA*kA*k[5mC]*dT*dT*dT*d[5mC]*dA*d[5mC]*dA*dT*dA*dA*kA*k[5mC]*kT; antisense) [Compound 716578]
YAP1 (% UTC) [7]: 102 % UTC

1074148 (antisense kG*kT*kG*dG*dA*dG*dA*dA*dG*d[5mC]*dG*dG*d[5mC]*kG*kA*k[5mC]) [Compound 1074148]
YAP1 (% UTC) [4]: 66 % UTC
